Test results as given in BindingDB's records for doi:10.1021/bi051886s (Johnson & Johnson Pharmaceutical, 2006).

What was measured:
Assay in all cases: Protease Inhibition Assay
[1] = target: T1, Dimer of Gag-Pol polyprotein [501-599,V583F] (Human immunodeficiency virus 1, UniProt P03367, V583F); settings: pH 4.7; 37 °C
T1 construct: 501-599

[2] = target: T2, Dimer of Gag-Pol polyprotein [501-599] (Human immunodeficiency virus 1, UniProt P03367); settings: pH 4.7; 37 °C
T2 construct: 501-599

[3] = target: T3, Dimer of Gag-Pol polyprotein [490-588,L523I,E525D,M526I,I544V,L553H,H559K,V572F,L579M] (Human immunodeficiency virus 1, UniProt P05959, E525D/H559K/I544V/L523I/L553H/L579M/M526I/V572F)
T3 construct: 490-588

[4] = target: T4, Dimer of Gag-Pol polyprotein [482-580,I502K,I528M,T553A] (Human immunodeficiency virus 1, UniProt P24740, I502K/I528M/T553A); settings: pH 4.7; 37 °C
T4 construct: 482-580

[5] = target: T5, Dimer of Gag-Pol polyprotein [490-588,L523I,E525D,M526I,I544V,L553H,H559K,L579M] (Human immunodeficiency virus 1, UniProt P05959, E525D/H559K/I544V/L523I/L553H/L579M/M526I)
T5 construct: 490-588

[6] = target: T6, Dimer of Gag-Pol polyprotein [482-580,I502K,I528M,T553A,V564F] (Human immunodeficiency virus 1, UniProt P24740, I502K/I528M/T553A/V564F)
T6 construct: 482-580

Compound | Ki [1] [nM] | Ki [2] [nM] | Ki [3] [nM] | Ki [4] [nM] | Ki [5] [nM] | Ki [6] [nM]
Cc1cccc(C)c1OCC(=O)N[C@@H](Cc1ccccc1)[C@@H](O)C[C@H](Cc1ccccc1)NC(=O)[C@H](C(C)C)N1CCCNC1=O [(2S)-N-[(2S,4S,5S)-5-[2-(2,6-dimethylphenoxy)acetamido]-4-hydroxy-1,6-diphenylhexan-2-yl]-3-methyl-2-(2-oxo-1,3-diazinan-1-yl)butanamide] | 0.2 | 0.05 | 9 | 0.019 | 0.5 | 0.48
COC(=O)N[C@H](C(=O)N[C@@H](Cc1ccccc1)[C@@H](O)CN(Cc1ccc(-c2ccccn2)cc1)NC(=O)[C@@H](NC(=O)OC)C(C)(C)C)C(C)(C)C [CGP 73547] | 0.56 |  | 0.7 | 0.24 | 1.1 | 0.57
CC(C)(C)NC(=O)[C@@H]1CN(Cc2cccnc2)CCN1C[C@@H](O)C[C@@H](Cc1ccccc1)C(=O)N[C@H]1c2ccccc2C[C@H]1O [Crixivan] |  |  | 1620 | 6.9 | 42 | 108
CC(C)(C)NC(=O)[C@@H]1C[C@@H]2CCCC[C@@H]2CN1C[C@@H](O)[C@H](Cc1ccccc1)NC(=O)[C@H](CC(N)=O)NC(=O)c1ccc2ccccc2n1 [SQV] |  |  | 24 | 1.8 | 48 | 0.43
CC(C)CN(C[C@@H](O)[C@H](Cc1ccccc1)NC(=O)O[C@H]1CCOC1)S(=O)(=O)c1ccc(N)cc1 [VX-478] |  |  | 23 | 0.4 | 1.4 | 1.2
Cc1c(O)cccc1C(=O)N[C@@H](CSc1ccccc1)[C@H](O)CN1C[C@H]2CCCC[C@H]2C[C@H]1C(=O)NC(C)(C)C [Viracept] |  |  | 146 |  | 17 | 
